Data: PubChem BioAssay AID2060888 (Molecular Pharmacology Branch, DTP, NCI, 2025)

Test system: 695427-040-R-J1-PDC complex spheroid viability
Test: Anticancer human tumor 695427-040-R-J1-PDC patient-derived colon adenocarcinoma cell line growth inhibition [RAS]
Conditions: for IC50: curve of first compound; for viability, T/C: stronger effect = lower value
Summary of the method: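 Agents were tested in combination matrices in half-log decrements from a top concentration at or near clinical Cmax (10 microM if undetermined). Targets were multi-cell spheroids of tumour lines plus HUVEC and MSC stromal cells.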

[1] = second compound 0.000949 µM, first compound 0.00316 µM
[2] = second compound 0.000949 µM, first compound 0.01 µM
[3] = second compound 0.000949 µM, first compound 0.0316 µM
[4] = second compound 0.000949 µM, first compound 0.1 µM
[5] = second compound 0.000949 µM, first compound 0.316 µM
[6] = second compound 0.000949 µM, first compound 1 µM
[7] = second compound 0.003 µM, first compound 0.00316 µM
[8] = second compound 0.003 µM, first compound 0.01 µM
[9] = second compound 0.003 µM, first compound 0.0316 µM
[10] = second compound 0.003 µM, first compound 0.1 µM
[11] = second compound 0.003 µM, first compound 0.316 µM
[12] = second compound 0.003 µM, first compound 1 µM
[13] = second compound 0.00949 µM, first compound 0.00316 µM
[14] = second compound 0.00949 µM, first compound 0.01 µM
[15] = second compound 0.00949 µM, first compound 0.0316 µM
[16] = second compound 0.00949 µM, first compound 0.1 µM
[17] = second compound 0.00949 µM, first compound 0.316 µM
[18] = second compound 0.00949 µM, first compound 1 µM
[19] = second compound 0.03 µM, first compound 0.00316 µM
[20] = second compound 0.03 µM, first compound 0.01 µM
[21] = second compound 0.03 µM, first compound 0.0316 µM
[22] = second compound 0.03 µM, first compound 0.1 µM
[23] = second compound 0.03 µM, first compound 0.316 µM
[24] = second compound 0.03 µM, first compound 1 µM
[25] = second compound 0.0949 µM, first compound 0.00316 µM
[26] = second compound 0.0949 µM, first compound 0.01 µM
[27] = second compound 0.0949 µM, first compound 0.0316 µM
[28] = second compound 0.0949 µM, first compound 0.1 µM
[29] = second compound 0.0949 µM, first compound 0.316 µM
[30] = second compound 0.0949 µM, first compound 1 µM
[31] = second compound 0.3 µM, first compound 0.00316 µM
[32] = second compound 0.3 µM, first compound 0.01 µM
[33] = second compound 0.3 µM, first compound 0.0316 µM
[34] = second compound 0.3 µM, first compound 0.1 µM
[35] = second compound 0.3 µM, first compound 0.316 µM
[36] = second compound 0.3 µM, first compound 1 µM
[37] = second compound 0.000949 µM, first compound 3.16 µM
[38] = second compound 0.000949 µM, first compound 10 µM
[39] = second compound 0.003 µM, first compound 3.16 µM
[40] = second compound 0.003 µM, first compound 10 µM
[41] = second compound 0.00949 µM, first compound 3.16 µM
[42] = second compound 0.00949 µM, first compound 10 µM
[43] = second compound 0.03 µM, first compound 3.16 µM
[44] = second compound 0.03 µM, first compound 10 µM
[45] = second compound 0.0949 µM, first compound 3.16 µM
[46] = second compound 0.0949 µM, first compound 10 µM
[47] = second compound 0.3 µM, first compound 3.16 µM
[48] = second compound 0.3 µM, first compound 10 µM
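Also: viability read after seven days of drug exposure.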
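For viability, T/C in this document: 100% = DMSO vehicle control viability.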

C=CC(=O)Nc1cc(Nc2nccc(-c3cn(C)c4ccccc34)n2)c(OC)cc1N(C)CCN(C)C + CCn1c(-c2cc(N3CCN(C)CC3)cnc2C(C)OC)c2c3cc(ccc31)-c1csc(n1)CC(NC(=O)C1CC1C)C(=O)N1CCCC(N1)C(=O)OCC(C)(C)C2
IC50 (second compound 0.000949 µM): 523 nM
IC50 (second compound 0.003 µM): 363 nM
IC50 (second compound 0.00949 µM): 147 nM
IC50 (second compound 0.03 µM): 44.3 nM
IC50 (second compound 0.0949 µM): < 3.16 nM
IC50 (second compound 0.3 µM): < 3.16 nM
viability, T/C [1]: 104%
viability, T/C [2]: 91.1%
viability, T/C [3]: 75.1%
viability, T/C [4]: 82.8%
viability, T/C [5]: 58.1%
viability, T/C [6]: 37.1%
viability, T/C [7]: 103%
viability, T/C [8]: 88.7%
viability, T/C [9]: 68%
viability, T/C [10]: 74%
viability, T/C [11]: 52.3%
viability, T/C [12]: 35.9%
viability, T/C [13]: 91.7%
viability, T/C [14]: 78.3%
viability, T/C [15]: 68.9%
viability, T/C [16]: 54.4%
viability, T/C [17]: 41.5%
viability, T/C [18]: 24.6%
viability, T/C [19]: 58.9%
viability, T/C [20]: 60.1%
viability, T/C [21]: 51.3%
viability, T/C [22]: 42.8%
viability, T/C [23]: 36.9%
viability, T/C [24]: 21.2%
viability, T/C [25]: 46.6%
viability, T/C [26]: 45.7%
viability, T/C [27]: 34.2%
viability, T/C [28]: 36.9%
viability, T/C [29]: 24.4%
viability, T/C [30]: 17.3%
viability, T/C [31]: 33.3%
viability, T/C [32]: 34.9%
viability, T/C [33]: 29.7%
viability, T/C [34]: 30.1%
viability, T/C [35]: 26.9%
viability, T/C [36]: 16.1%

CC(C)NCC(C(=O)N1CCN(c2ncnc3c2C(C)CC3O)CC1)c1ccc(Cl)cc1 (stereo not drawn) + CCn1c(-c2cc(N3CCN(C)CC3)cnc2C(C)OC)c2c3cc(ccc31)-c1csc(n1)CC(NC(=O)C1CC1C)C(=O)N1CCCC(N1)C(=O)OCC(C)(C)C2
IC50 (second compound 0.000949 µM): > 10000 nM
IC50 (second compound 0.003 µM): > 10000 nM
IC50 (second compound 0.00949 µM): > 10000 nM
IC50 (second compound 0.03 µM): 4050 nM
IC50 (second compound 0.0949 µM): < 31.6 nM
IC50 (second compound 0.3 µM): < 31.6 nM
viability, T/C [3]: 84.9%
viability, T/C [4]: 98.1%
viability, T/C [5]: 78.2%
viability, T/C [6]: 89.4%
viability, T/C [37]: 60.6%
viability, T/C [38]: 54.8%
viability, T/C [9]: 107%
viability, T/C [10]: 85.5%
viability, T/C [11]: 96.5%
viability, T/C [12]: 73%
viability, T/C [39]: 85.6%
viability, T/C [40]: 59.2%
viability, T/C [15]: 74.4%
viability, T/C [16]: 81.3%
viability, T/C [17]: 65%
viability, T/C [18]: 59.1%
viability, T/C [41]: 85.3%
viability, T/C [42]: 54.1%
viability, T/C [21]: 51.4%
viability, T/C [22]: 54.6%
viability, T/C [23]: 51.4%
viability, T/C [24]: 52.5%
viability, T/C [43]: 60.1%
viability, T/C [44]: 35.1%
viability, T/C [27]: 36.4%
viability, T/C [28]: 45.1%
viability, T/C [29]: 39.2%
viability, T/C [30]: 36%
viability, T/C [45]: 41.9%
viability, T/C [46]: 24.6%
viability, T/C [33]: 36.9%
viability, T/C [34]: 28.7%
viability, T/C [35]: 35.5%
viability, T/C [36]: 30.8%
viability, T/C [47]: 27.9%
viability, T/C [48]: 15.5%

CC(Nc1ccc2c(c1)OCCn1cc(N3C(=O)OCC3C(F)F)nc1-2)C(N)=O (stereo not drawn) + CCn1c(-c2cc(N3CCN(C)CC3)cnc2C(C)OC)c2c3cc(ccc31)-c1csc(n1)CC(NC(=O)C1CC1C)C(=O)N1CCCC(N1)C(=O)OCC(C)(C)C2
IC50 (second compound 0.000949 µM): 855 nM
IC50 (second compound 0.003 µM): 673 nM
IC50 (second compound 0.00949 µM): 581 nM
IC50 (second compound 0.03 µM): < 31.6 nM
IC50 (second compound 0.0949 µM): < 31.6 nM
IC50 (second compound 0.3 µM): < 31.6 nM
viability, T/C [3]: 61.4%
viability, T/C [4]: 72.4%
viability, T/C [5]: 69.7%
viability, T/C [6]: 47.1%
viability, T/C [37]: 39.1%
viability, T/C [38]: 38%
viability, T/C [9]: 100%
viability, T/C [10]: 70.5%
viability, T/C [11]: 59.5%
viability, T/C [12]: 41.9%
viability, T/C [39]: 45.6%
viability, T/C [40]: 41.9%
viability, T/C [15]: 86.2%
viability, T/C [16]: 66.2%
viability, T/C [17]: 54%
viability, T/C [18]: 49.8%
viability, T/C [41]: 32.2%
viability, T/C [42]: 25.6%
viability, T/C [21]: 45.6%
viability, T/C [22]: 48.3%
viability, T/C [23]: 32.2%
viability, T/C [24]: 27.1%
viability, T/C [43]: 26.6%
viability, T/C [44]: 22.3%
viability, T/C [27]: 35%
viability, T/C [28]: 33.3%
viability, T/C [29]: 31.4%
viability, T/C [30]: 19.1%
viability, T/C [45]: 21.3%
viability, T/C [46]: 14.6%
viability, T/C [33]: 36.1%
viability, T/C [34]: 22.2%
viability, T/C [35]: 24.3%
viability, T/C [36]: 17.1%
viability, T/C [47]: 14.9%
viability, T/C [48]: 13.7%

O=C(c1ccc(F)c(F)c1Nc1ccc(I)cc1F)N1CC(O)([C@@H]2CCCCN2)C1 + CCn1c(-c2cc(N3CCN(C)CC3)cnc2C(C)OC)c2c3cc(ccc31)-c1csc(n1)CC(NC(=O)C1CC1C)C(=O)N1CCCC(N1)C(=O)OCC(C)(C)C2
IC50 (second compound 0.000949 µM): 73.6 nM
IC50 (second compound 0.003 µM): 43.1 nM
IC50 (second compound 0.00949 µM): 26.5 nM
IC50 (second compound 0.03 µM): 4.98 nM
IC50 (second compound 0.0949 µM): < 3.16 nM
IC50 (second compound 0.3 µM): < 3.16 nM
viability, T/C [1]: 79.7%
viability, T/C [2]: 75.5%
viability, T/C [3]: 65.4%
viability, T/C [4]: 45.2%
viability, T/C [5]: 18.3%
viability, T/C [6]: 6.04%
viability, T/C [7]: 91.8%
viability, T/C [8]: 74.2%
viability, T/C [9]: 53.8%
viability, T/C [10]: 40%
viability, T/C [11]: 14.5%
viability, T/C [12]: 7.31%
viability, T/C [13]: 73.1%
viability, T/C [14]: 63.4%
viability, T/C [15]: 45.9%
viability, T/C [16]: 32.7%
viability, T/C [17]: 11.4%
viability, T/C [18]: 7.1%
viability, T/C [19]: 57.8%
viability, T/C [20]: 37.1%
viability, T/C [21]: 28.5%
viability, T/C [22]: 18.5%
viability, T/C [23]: 8.58%
viability, T/C [24]: 5.7%
viability, T/C [25]: 28.6%
viability, T/C [26]: 27.8%
viability, T/C [27]: 15.5%
viability, T/C [28]: 7.38%
viability, T/C [29]: 6.14%
viability, T/C [30]: 4.07%
viability, T/C [31]: 23.2%
viability, T/C [32]: 17.1%
viability, T/C [33]: 11.6%
viability, T/C [34]: 6.62%
viability, T/C [35]: 6.7%
viability, T/C [36]: 5.28%
